Results published in patent publication US10890591B2, “Methods and dose packs for monitoring medication adherence” (Synapse Biosciences, LLC, priority 2016, dated 2021).
Like-named read-outs stand apart in the source and are kept apart here.

Key:
clinical [1] = settings: human, in vivo
Text: (§1) All other markers were obtained from commercial sources. Urine and saliva were collected prior to each day's dosing of marker confirming the presence or absence of markers before the experiment started. […] The presence of all 7 markers at day 8 would confirm that all markers were ingested in the previous 7 day one week period.
(§2) Healthy volunteers with no recent exposure to the markers who were not currently taking prescribed medications, OTC medications or vitamins and supplements were chosen. Exposure to the markers more than one month before starting the experiment was allowed and no dietary restrictions were required. Subjects were given a 7 day blister pack with markers sequenced in the order above. Subjects verbally confirmed they understood the urine and saliva collection procedures. Instructions printed on the marker blister pack instructed subjects to collect urine and saliva each morning before they took the daily dose of marker. They were also instructed to take the daily dose of marker close to the same time each day.

clinical [2] = settings: in vivo
Text: as §1, §2

[3] = human, in vivo
clinical [4] = settings: human, in vivo, Urine Results
[5] = human, Average of Urine Samples
[6] = human, Subject A, Urine Results
[7] = human, Subject B, Urine Results

- concentration at 1 day (clinical [1]): 0 µg/mL
- concentration at 2 day (clinical [1]): 0 µg/mL
- concentration at 3 day (clinical [1]): 0 µg/mL
- concentration at 4 day (clinical [1]): 0 µg/mL
- concentration at 5 day (clinical [1]): 0 µg/mL
- concentration at 6 day (clinical [1]): 0.227 µg/mL
- concentration at 7 day (clinical [1]): 0 µg/mL
- concentration at 8 day (clinical [1]): 0 µg/mL
- detection of marker in saliva across subjects (clinical [1]): not detectable in 2 of the 4 subjects
- Subject C, Urine Results (clinical [2]; human, 1 day): 0 ng/m
- Subject D, Urine Results (clinical [2]; human, 1 day): 0 ng/m
- Subject C, Urine Results (clinical [2]; human, 2 day): 0 ng/m
- Subject D, Urine Results (clinical [2]; human, 2 day): 0 ng/m
- Subject C, Urine Results (clinical [2]; human, 3 day): 0 ng/m
- Subject D, Urine Results (clinical [2]; human, 3 day): 0 ng/m
- Subject C, Urine Results (clinical [2]; human, 4 day): 0 ng/m
- Subject D, Urine Results (clinical [2]; human, 4 day): 0 ng/m
- Subject C, Urine Results (clinical [2]; human, 5 day): 0 ng/m
- Subject D, Urine Results (clinical [2]; human, 5 day): 0 ng/m
- Subject A, Urine Results (clinical [2]; human, 6 day): 2020000 ng/mL
- Subject C, Urine Results (clinical [2]; human, 6 day): 618000 ng/m
- Subject D, Urine Results (clinical [2]; human, 6 day): 585000 ng/m
- Subject C, Urine Results (clinical [2]; human, 7 day): 144000 ng/m
- Subject D, Urine Results (clinical [2]; human, 7 day): 185000 ng/m
- Subject C, Urine Results (clinical [2]; human, 8 day): 125000 ng/m
- Subject D, Urine Results (clinical [2]; human, 8 day): 54100 ng/m
- concentration at 1 day (clinical [2]; [5]): 0 µg/mL
- concentration at 2 day (clinical [2]; [5]): 0 µg/mL
- concentration at 3 day (clinical [2]; [5]): 0 µg/mL
- concentration at 4 day (clinical [2]; [5]): 0 µg/mL
- concentration at 5 day (clinical [2]; [5]): 0 µg/mL
- concentration at 6 day (clinical [2]; [5]): 972 µg/mL
- concentration at 7 day (clinical [2]; [5]): 163 µg/mL
- concentration at 8 day (clinical [2]; [5]): 88.7 µg/mL
- concentration at 1 day (clinical [2]; [6]): 0 µg/mL
- concentration at 2 day (clinical [2]; [6]): 0 µg/mL
- concentration at 3 day (clinical [2]; [6]): 0 µg/mL
- concentration at 4 day (clinical [2]; [6]): 0 µg/mL
- concentration at 5 day (clinical [2]; [6]): 0 µg/mL
- concentration at 1 day (clinical [2]; [7]): 0 µg/mL
- concentration at 2 day (clinical [2]; [7]): 0 µg/mL
- concentration at 3 day (clinical [2]; [7]): 0 µg/mL
- concentration at 4 day (clinical [2]; [7]): 0 µg/mL
- concentration at 5 day (clinical [2]; [7]): 0 µg/mL
- concentration at 6 day (clinical [2]; [7]): 663 µg/mL
- concentration at 7 day (clinical [2]; [7]): 151 µg/mL
- concentration at 8 day (clinical [2]; [7]): 120 µg/mL
- concentration at 1 day (clinical [4]; Subject A): 0 µg/mL
- concentration at 2 day (clinical [4]; Subject A): 0 µg/mL
- concentration at 3 day (clinical [4]; Subject A): 0 µg/mL
- concentration at 4 day (clinical [4]; Subject A): 0 µg/mL
- concentration at 5 day (clinical [4]; Subject A): 0 µg/mL
- concentration at 6 day (clinical [4]; Subject A): 481 µg/mL
- concentration at 1 day (clinical [4]; Subject B): 0 µg/mL
- concentration at 2 day (clinical [4]; Subject B): 0 µg/mL
- concentration at 3 day (clinical [4]; Subject B): 0 µg/mL
- concentration at 4 day (clinical [4]; Subject B): 0 µg/mL
- concentration at 5 day (clinical [4]; Subject B): 0 µg/mL
- concentration at 6 day (clinical [4]; Subject B): 0 µg/mL
- concentration at 7 day (clinical [4]; Subject B): 0 µg/mL
- concentration at 8 day (clinical [4]; Subject B): 0 µg/mL
- concentration at 1 day (clinical [4]; Subject C): 0 µg/mL
- concentration at 2 day (clinical [4]; Subject C): 0 µg/mL
- concentration at 3 day (clinical [4]; Subject C): 0 µg/mL
- concentration at 4 day (clinical [4]; Subject C): 0 µg/mL
- concentration at 5 day (clinical [4]; Subject C): 0 µg/mL
- concentration at 6 day (clinical [4]; Subject C): 151 µg/mL
- concentration at 7 day (clinical [4]; Subject C): 214 µg/mL
- concentration at 8 day (clinical [4]; Subject C): 8.84 µg/mL
- concentration at 3 day (clinical [4]; Subject D): 0 µg/mL
- concentration at 4 day (clinical [4]; Subject D): 0 µg/mL
- concentration at 5 day (clinical [4]; Subject D): 0 µg/mL
- concentration at 6 day (clinical [4]; Subject D): 684 µg/mL
- concentration at 8 day (clinical [4]; Subject D): 75.3 µg/mL
SMILES: CN(C)CCOC(c1ccccc1)c1ccccc1 [Diphenhydramine]
- course of urine levels relative to dosing (clinical [2]): zero before dosing, peaked the day after dosing and slowly decreased over time
- course of urine levels relative to dosing [3]: zero before dosing, peaked the day after dosing and slowly decreased over time
